According to patent US8546381B2, “Bridged heterocyclic compounds and methods of use” (Medivation Technologies, Inc., priority 2008, dated 2013):

How the values were obtained:
[1] = biological target: T1, human recombinant histamine H2 receptor (Homo sapiens, UniProt P25021); experiment: Histamine H2 radioligand binding ([125I]Aminopotentidine); conditions: compound at 1 μM; inhibition of specific [125I]Aminopotentidine binding; read-out: Histamine Binding (1 μM) H2, Percentage Inhibition
T1 construct: expressed in transfected cells; host or cells: CHO-K1 cells
Method in brief: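 CHO-K1 membranes expressing the receptor were incubated in 50 mM phosphate buffer, pH 7.4, with 0.1 nM [125I]aminopotentidine for 120 min at 25°C; 3 μM tiotidine defined non-specific binding.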

[2] = biological target: T2, human recombinant adrenergic α2B receptor (Homo sapiens, UniProt P18089); experiment: Adrenergic α2B radioligand binding ([3H]Rauwolscine); conditions: 1 μM; read-out: Adrenergic α2B, inhibition of ligand binding (1 μM)
T2 construct: expressed in transfected cells; host or cells: CHO-K1 cells
T2 sequence (P18089 1-450): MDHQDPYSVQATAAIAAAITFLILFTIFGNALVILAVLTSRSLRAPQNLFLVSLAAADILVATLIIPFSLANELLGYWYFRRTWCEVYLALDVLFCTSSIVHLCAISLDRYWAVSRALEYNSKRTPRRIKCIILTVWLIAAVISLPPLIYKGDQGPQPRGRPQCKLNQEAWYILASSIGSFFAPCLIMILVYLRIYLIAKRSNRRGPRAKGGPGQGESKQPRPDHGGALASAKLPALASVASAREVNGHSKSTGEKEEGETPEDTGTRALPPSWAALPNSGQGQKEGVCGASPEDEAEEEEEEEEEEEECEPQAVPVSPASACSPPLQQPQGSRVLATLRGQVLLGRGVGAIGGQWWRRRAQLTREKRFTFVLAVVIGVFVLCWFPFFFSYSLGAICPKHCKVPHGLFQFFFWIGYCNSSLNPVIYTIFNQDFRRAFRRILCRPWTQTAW
Description: To evaluate in radioligand binding assays the activity of compounds of the invention, human recombinant adrenergic α2B receptor expressed in Chinese hamster ovary (CHO-K1) cells (Uhlen S et al. Eur J. Pharmacol. 343(1):93, 1998) in a modified Tris-HCl buffer (50 mM Tris-HCl, pH 7.4, 12.5 mM MgCl2, 1 mM EDTA, 0.2% BSA) was used. Compounds of the invention were incubated with 2.5 nM [^3H]Rauwolscine for 60 minutes at 25° C. Non-specific binding was estimated in the presence of 10 μM Prozosin. Receptor proteins were filtered and washed, the filters were then counted to determine [^3H]Rauwolscine specifically bound. Compounds were screened at 1 μM or lower, using 1% DMSO as vehicle. Biochemical assay results are presented as the percent inhibition of specific binding in Table 3.

[3] = biological target: T3, human recombinant dopamine D2L receptor (Homo sapiens, UniProt P14416); experiment: Dopamine D2L radioligand binding ([3H]Spiperone); conditions: read-out: Dopamine (1 μM) D2L, inhibition of ligand binding
T3 construct: expressed in transfected cells; host or cells: CHO cells
Method in brief: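 Receptor expressed in CHO cells, in Tris-HCl pH 7.4 buffer with 150 mM NaCl. Binding used 0.16 nM [3H]spiperone for 120 min at 25 °C, with non-specific binding defined by 10 μM haloperidol and filtration counting.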

[4] = biological target: T4, human recombinant serotonin (5-Hydroxytryptamine) 5-HT2C receptor (Homo sapiens, UniProt P28335); experiment: Serotonin 5-HT2C radioligand binding ([3H]Mesulergine); conditions: read-out: Serotonin 5-HT2C, inhibition of ligand binding (1 μM)
T4 construct: expressed in transfected cells; host or cells: CHO-K1 cells
T4 sequence (P28335 33-458): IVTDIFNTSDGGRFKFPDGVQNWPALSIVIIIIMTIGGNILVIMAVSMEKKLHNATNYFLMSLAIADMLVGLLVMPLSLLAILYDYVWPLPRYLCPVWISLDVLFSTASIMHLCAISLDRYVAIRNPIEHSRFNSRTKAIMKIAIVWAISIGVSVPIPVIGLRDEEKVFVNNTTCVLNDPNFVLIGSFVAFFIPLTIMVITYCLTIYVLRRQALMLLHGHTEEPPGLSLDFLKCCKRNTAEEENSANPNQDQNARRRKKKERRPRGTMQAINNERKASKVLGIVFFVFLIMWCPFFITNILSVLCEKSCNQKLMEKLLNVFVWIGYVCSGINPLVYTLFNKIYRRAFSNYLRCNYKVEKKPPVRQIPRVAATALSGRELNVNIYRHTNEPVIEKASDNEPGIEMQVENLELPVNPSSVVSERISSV
Method in brief: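 Membranes from CHO-K1 cells expressing the human receptor were incubated 60 min at 25 °C with 1 nM [3H]mesulergine in 50 mM Tris-HCl pH 7.4 with ascorbic acid and 10 μM pargyline. Compounds were tested at 1 μM or lower in 1% DMSO, with 1 μM mianserin defining non-specific binding. After filtration, values are % inhibition of specific binding.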

T3 sequence (P14416 whole entry): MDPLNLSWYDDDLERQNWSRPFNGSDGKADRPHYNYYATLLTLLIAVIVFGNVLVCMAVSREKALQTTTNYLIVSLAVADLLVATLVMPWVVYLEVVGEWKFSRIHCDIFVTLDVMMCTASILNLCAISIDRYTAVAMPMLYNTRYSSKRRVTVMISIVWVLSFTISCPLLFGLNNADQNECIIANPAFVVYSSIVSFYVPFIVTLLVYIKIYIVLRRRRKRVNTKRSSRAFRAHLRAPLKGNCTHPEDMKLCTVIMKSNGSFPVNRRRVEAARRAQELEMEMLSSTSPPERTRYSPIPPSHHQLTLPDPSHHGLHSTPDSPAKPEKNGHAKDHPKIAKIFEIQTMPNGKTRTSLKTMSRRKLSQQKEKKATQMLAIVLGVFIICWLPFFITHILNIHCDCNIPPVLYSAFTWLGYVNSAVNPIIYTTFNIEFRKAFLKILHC
T1 sequence (P25021 whole entry): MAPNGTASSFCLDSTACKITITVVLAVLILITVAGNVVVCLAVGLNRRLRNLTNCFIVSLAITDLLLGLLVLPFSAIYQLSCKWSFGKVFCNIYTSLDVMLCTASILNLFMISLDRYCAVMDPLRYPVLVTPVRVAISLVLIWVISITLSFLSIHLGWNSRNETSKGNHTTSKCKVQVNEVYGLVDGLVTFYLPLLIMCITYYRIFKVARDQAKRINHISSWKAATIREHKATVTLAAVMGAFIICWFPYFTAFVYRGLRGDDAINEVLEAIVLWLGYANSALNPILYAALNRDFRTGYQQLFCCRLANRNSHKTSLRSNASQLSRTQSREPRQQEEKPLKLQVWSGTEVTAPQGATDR

SMILES | inhibition at 1 µM [1] [%] | inhibition at 1 µM [2] [%] | inhibition at 1 µM [3] [%] | inhibition at 1 µM [4] [%]
CN1C2CCC1c1c(n(CCC#N)c3ccc(Cl)cc13)C2 (stereo not drawn) [Compound 107] | -4 | 57 | -5 | 25
CN1C2CCC1c1c(n(CC(=O)c3ccccc3)c3ccc(Cl)cc13)C2 (stereo not drawn) [Compound 110] | 27 | 92 | 14 | 62
CN1C2CCC1c1c(n(CC(=O)c3ccc(Cl)cc3)c3ccc(Cl)cc13)C2 (stereo not drawn) [Compound 111] | 33 | 96 | 6 | 81
Cc1ccc2c(c1)c1c(n2CCc2nc(-c3ccccc3)cs2)CC2CCC1N2C (stereo not drawn) [Compound 114] | 10 | 107 | 11 | 59
C/C(=C\n1c2c(c3cc(C)ccc31)C1CCC(C2)N1C)c1ccc(Cl)cc1 (stereo not drawn) [Compound 116] | 81 | 95 | -2 | 97
C/C(=C/n1c2c(c3ccccc31)[C@@H]1CC[C@H](C2)N1C)c1ccc(F)cc1 [Compound 121] | 21 | 100 | 19 | 88
C/C(=C\n1c2c(c3cc(Cl)ccc31)C1CCC(C2)N1C)c1ccc(F)cc1 (stereo not drawn) [Compound 123] | 93 | 103 | 80 | 95
C/C(=C\n1c2c(c3cc(C)ccc31)C1CCC(C2)N1C)c1ccc(F)cc1 (stereo not drawn) [Compound 124] | 79 | 101 | 33 | 86
C/C(=C\n1c2c(c3cc(Cl)ccc31)C1CCC(C2)N1C)c1ccc(Cl)cc1 (stereo not drawn) [Compound 125] | 96 | 103 | 5 | 99
COc1ccc(/C(C)=C/n2c3c(c4cc(Cl)ccc42)C2CCC(C3)N2C)cc1F (stereo not drawn) [Compound 136] | 100 | 87 | 11 | 100
CN1C2CCC1c1c(n(C#Cc3ccc(F)cc3)c3ccc(Cl)cc13)C2 (stereo not drawn) [Compound 138] | 70 | 109 | 42 | 97
Cc1ccc(C#Cn2c3c(c4cc(Cl)ccc42)C2CCC(C3)N2C)cn1 (stereo not drawn) [Compound 139] | 34 | 115 | -4 | 93
Cc1ccc2c(c1)c1c(n2C#Cc2ccc(F)cc2)CC2CCC1N2C (stereo not drawn) [Compound 141] | 25 | 95 | -4 | 89
CN1C2CCC1c1c(n(C#Cc3ccc(Cl)cc3)c3ccc(Cl)cc13)C2 (stereo not drawn) [Compound 142] | 71 | 95 | 0 | 100
COc1ccc(C(C)(O)Cn2c3c(c4cc(Cl)ccc42)C2CCC(C3)N2C)cc1F (stereo not drawn) [Compound 160] | 22 | 80 | 7 | 93
COc1ccc(C(C)(O)Cn2c3c(c4cc(C)ccc42)C2CCC(C3)N2C)cc1F (stereo not drawn) [Compound 161] | 20 | 95 | 12 | 92
Cc1ccc2c(c1)c1c(n2C(=O)Cc2ccc(Cl)cc2)CC2CCC1N2C (stereo not drawn) [Compound 162] | 47 | 83 | 2 | 93
C/C(=C\n1c2c(c3cc(C)ccc31)C1CCC(C2)N1C)c1ccc(Cl)cc1Cl (stereo not drawn) [Compound 163] | 66 | 104 | -16 | 94
